One experiment addresses T1, hMAO-B (Homo sapiens, UniProt P27338).
T1 sequence (P27338 1-520): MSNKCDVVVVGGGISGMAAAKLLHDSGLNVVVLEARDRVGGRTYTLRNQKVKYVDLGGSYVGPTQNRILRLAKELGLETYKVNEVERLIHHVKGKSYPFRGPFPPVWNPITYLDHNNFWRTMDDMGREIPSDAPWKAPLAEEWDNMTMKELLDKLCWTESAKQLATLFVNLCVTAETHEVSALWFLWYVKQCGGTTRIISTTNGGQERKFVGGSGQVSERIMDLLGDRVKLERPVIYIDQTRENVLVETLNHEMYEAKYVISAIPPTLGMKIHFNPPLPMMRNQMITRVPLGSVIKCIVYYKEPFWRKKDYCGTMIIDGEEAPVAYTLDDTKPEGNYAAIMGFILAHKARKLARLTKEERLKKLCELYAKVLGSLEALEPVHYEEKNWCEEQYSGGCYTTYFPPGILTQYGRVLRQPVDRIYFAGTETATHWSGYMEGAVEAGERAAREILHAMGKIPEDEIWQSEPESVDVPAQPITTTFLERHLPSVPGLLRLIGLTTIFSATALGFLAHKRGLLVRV
The experiment is described as follows: enzyme kinetic studies (Lineweaver-Burk) of hMAO-B inhibition. The class given is biochemical. How it is done: The mechanism of hMAO-B inhibition was investigated by enzyme kinetic studies. Lineweaver-Burk graphs were used to estimate the type of inhibition. […] The velocity measurements were performed by using different substrate concentrations (20 µM–0.625 µM). The Ki (intercept on the x-axis) value of compound 3e was determined from the secondary plot of the 1/V versus varying concentrations.
The Lineweaver-Burk graphics present the inhibition type as a mixed-type, competitive, uncompetitive, or non-competitive. In the mix-typed inhibition, the control and inhibitor lines cross neither x- nor y-axis at the same point. […] There is no crosses between the lines in uncompetitive-type inhibition. […] Thus, it can be declared that the mechanism of hMAO-B inhibition of 3e is non-competitive, clarifying that the inhibitor can bind to either free enzyme or enzyme–substrate complex.
The same materials were used in the MAO inhibition assay. […] The solutions of inhibitor (20 μL/well) and enzyme added to the fine black-bottom 96-well microtiter plate and then the mixture was incubated at 37 °C for 30 min. After incubation period, the working solution, including various concentrations (20, 10, 5, 2.5, 1.25, and 0.625 μM) of tyramine (100 μL/well), was added. The increase of the fluorescence (Ex/Em = 535/587 nm) was recorded for 30 min. A parallel experiment was performed without using an inhibitor. All processes were assayed in quadruplicate. Lineweaver-Burk plots were obtained by using Microsoft Office Excel 2013 to analyze the inhibition type. The slopes of the Lineweaver-Burk plots were replotted versus the inhibitor concentration, and the Ki values were determined from the x-axis intercept as −Ki.

A further experiment deals with T2, hMAO-A (Homo sapiens, UniProt P21397).
T2 sequence (P21397 1-527): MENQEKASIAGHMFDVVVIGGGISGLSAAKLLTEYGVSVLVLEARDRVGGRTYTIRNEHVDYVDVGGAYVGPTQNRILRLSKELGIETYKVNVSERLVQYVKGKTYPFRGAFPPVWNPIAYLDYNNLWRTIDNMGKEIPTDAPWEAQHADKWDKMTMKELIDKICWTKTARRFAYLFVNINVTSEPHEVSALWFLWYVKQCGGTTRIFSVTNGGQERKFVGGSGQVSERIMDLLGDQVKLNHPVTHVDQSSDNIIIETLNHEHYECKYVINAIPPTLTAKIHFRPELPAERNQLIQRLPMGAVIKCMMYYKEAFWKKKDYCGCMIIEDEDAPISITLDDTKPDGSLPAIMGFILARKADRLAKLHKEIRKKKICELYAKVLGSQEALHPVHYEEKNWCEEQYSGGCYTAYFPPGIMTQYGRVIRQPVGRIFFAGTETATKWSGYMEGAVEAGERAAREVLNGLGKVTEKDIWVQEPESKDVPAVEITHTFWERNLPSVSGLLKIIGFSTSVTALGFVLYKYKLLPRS
The experiment is described as follows: in vitro fluorometric hMAO-A inhibition assay (Amplex Red). The class given is biochemical. The note with it: read-out: MAO A Inhibition %. How it is done: The in vitro fluorometric enzymatic assay, allowing to sensitively detect monoamine oxidase activity, was applied to investigate hMAO-A and hMAO-B inhibitory potential of compounds 3a–3j. The method was performed in two steps, as previously described. […]
An enzyme inhibition assay was performed according to our recent study. The inhibitor (20 μL/well) and hMAO-A (100 μL/well) or hMAO-B solution (100 μL/well) was added to the fine black-bottom 96-well microtiter plate and the mixture was incubated at 37 °C for 30 min. After the incubation period, the reaction was started by adding a working solution (100 μL/well) ([…] Amplex Red reagent, 1 U/mL horseradish peroxidase and 1 mM p-tyramine) and all pipetting processes were performed using a Biotek Precision XS robotic system (BioTek Instruments, Winooski, VT, USA).
The production of H2O2 and, subsequently, of resorufin was quantified at 37 °C in a BioTek-Synergy H1 microplate reader based on the fluorescence generated (excitation, 535 nm, emission, 587 nm) over a 15 min period, in which the fluorescence increased linearly. Control experiments were carried out simultaneously by replacing the inhibitor solution with 2% DMSO (20 μL). In order to check the probable inhibitory effect of inhibitors on horseradish peroxidase, a parallel reading was achieved by replacing enzyme solutions with 3% H2O2 solution (20 mM 100 μL/well). In addition, the probable capacity of the inhibitors to modify the fluorescence generated in the reaction mixture due to non-enzymatic inhibition was determined by mixing inhibitor and working solutions.
The specific fluorescence emission (used to obtain the final results) was calculated after subtraction of the background activity, which was determined from vials containing all components except the hMAO isoforms, which were replaced by phosphate buffer (100 μL/well). Blank, control and all concentrations of inhibitors were analyzed in quadruplicate and inhibition percent was calculated by using following equation: % Inhibition=(FCt2−FCt1)−(FIt2−FIt1)/FCt2−FCt1×100 where FCt2 is the fluorescence of a control well measured at t2 time; FCt1 is the fluorescence of a control well measured at t1 time; FIt2 is the fluorescence of an inhibitor well measured at t2 time; and FIt1 is the fluorescence of an inhibitor well measured at t1 time.
The IC50 values were calculated from a dose-response curve obtained by plotting the percentage inhibition versus the log concentration with the use of GraphPad PRISM software (version 5.0, GraphPad Software Inc., La Jolla, CA, USA).

A word on the Ki: it is the equilibrium dissociation constant of an inhibitor or competing ligand from its target. A word on the inhibition: it is the drop in the measured response relative to a control, in per cent.

With `COc1ccc2sc(SCC(=O)NN=Cc3ccc([N+](=O)[O-])s3)nc2c1` [Compound 3e, 2-((5-Methoxybenzothiazol-2-yl)thio)-N′-((5-nitrothiophen-2-yl)methylene)acetohydrazide], the “mechanism (type) of hMAO-B inhibition” value on hMAO-B (Lineweaver-Burk plots) was “non-competitive”. For the same molecule, the Vmax turned out to be 158.730 nmol/min/mg protein at hMAO-B (inhibitor concentration 2 × IC50), 212.766 nmol/min/mg protein at hMAO-B (inhibitor concentration IC50) and 263.158 nmol/min/mg protein on hMAO-B (inhibitor concentration IC50/2). Besides, the Ki on hMAO-B (secondary plot, x-axis intercept, substrate tyramine, read-out: Ki (steady-state inhibition constant) for the inhibition of hMAO-B) is 0.061 µM. Besides, the inhibition at 1000 µM on hMAO-A (10^−3 M) was 22.1%. At hMAO-A (10^−4 M), the inhibition at 100 µM came out at 18.6%.
